In patent publication US6395747B1, “Remedies for multiple sclerosis” (Kyorin Pharmaceutical Co., Ltd., priority 2001, dated 2002):

Experiments:
EAE model [1] = test: Clinical disease ameliorating effect in rat EAE (multiple sclerosis) model; assay type: in vivo, DA strain rats; details: DA rats
EAE model [2] = test: Histological evaluation of spinal cord inflammation in rat EAE model; assay type: in vivo, DA strain rats; details: 10 mg/kg once a day through a feeding tube, 12 days after immunization
[3] = 10 mg/kg once a day through a feeding tube

CC(C)C(=O)c1c(C(C)C)nn2ccccc12 [ibudilast]
clinical disease condition (clinical score) versus control group (EAE model [1]; 2 mg/kg once a day through a feeding tube): tendency of amelioration | body weight decrease (EAE model [1]; [3]): suppressed significantly | clinical disease condition (clinical score) versus control group (EAE model [1]; [3]): significant amelioration | disease onset (EAE model [1]; ibudilast-treated group, oral once a day): delayed | histological effect in comparison with the control (EAE model [2]): significant effect histologically | average histological score (inflammation, lumbar spinal cord, hematoxylin-eosin) (EAE model [2]; score scale 0-4): about 2.0
